Data on one molecule can be found in patent publication US10882830B2, “Crystal form of ozanimod hydrochloride and processes for preparation therefor” (Receptos LLC, priority 2016, dated 2021).

Counter-ions that a name gives are not always drawn.

What all share (format): physicochemical
Data set [1] in a line: Hygroscopicity assessment by dynamic vapor sorption (DVS). The note with it: 25° C.; for Weight Gain under 80% RH: DVS, about 10 mg of sample. As to the method: Dynamic Vapor Sorption (DVS) is measured via an SMS (Surface Measurement Systems Ltd.) intrinsic DVS. Typical Parameters for DVS test are as follows:
Gas and flow rate: N2, 200 mL/min
RH range: 0% RH to 95% RH
Dynamic vapor sorption (DVS) was applied to test hygroscopicity of Form CS3 with about 10 mg of sample. The DVS plot is substantially as depicted in FIG. 5.
Description and definition of hygroscopicity (Chinese Pharmacopoeia 2015 edition appendix Drug hygroscopic test guidelines, test at 25° C.+/−1° C., 80% RH). • deliquescent: Sufficient water is absorbed to form a liquid; • very hygroscopic: Increase in mass is equal to or greater than 15%; • hygroscopic: Increase in mass is less than 15% and equal to or greater than 2%; • slightly hygroscopic: Increase in mass is less than 2% and equal to or greater than 0.2%. • no or almost no hygroscopic: Increase in mass is less than 0.2%.

A short description of data set [2]: Solubility assessment: saturated solutions in SGF, FeSSIF and water, concentration by HPLC. The note with it: thermodynamic from solid. The protocol:
Form CS3 of ozanimod hydrochloride was suspended into SGF (Simulated gastric fluids, pH=1.8), FeSSIF (Fed state simulated intestinal fluids, pH=5.0) and water to obtain saturated solutions. After being equilibrated for 1 h, 4 h and 24 h, concentrations of the saturated solutions were measured by HPLC.

Data set [3] in a line: Particle size distribution test (Microtrac S3500 laser particle size analyzer, wet process). As to the method: The particle size distribution test in the present disclosure is acquired by the S3500 laser particle size analyzer of Microtrac. Microtrac S3500 is equipped with the SDC (Sample Delivery Controller). The test is carried out by wet process, and the dispersion medium is Isopar G The parameters are as follow:
Sample of Form CS3 was taken for particle size distribution test.

Data set [4] is described as follows: Stability assessment in constant temperature and humidity chambers, crystalline form tested by XRPD. The note with it: 2 weeks. The protocol: Two samples of Form CS3 of ozanimod hydrochloride were placed in constant temperature and humidity chambers at 25° C./60% RH and 40° C./75% RH for 2 weeks. XRPD was used to test the crystalline form. The XRPD overlay pattern is substantially as depicted in FIG. 8 (from top to bottom: XRPD pattern of Form CS3 before and after being stored under 25° C./60% RH and 40° C./75% RH for 2 weeks). […] It can be seen that Form CS3 of ozanimod hydrochloride has good stability, which is benefit for drug storage.

`CC(C)Oc1ccc(-c2nc(-c3cccc4c3CC[C@@H]4NCCO)no2)cc1C#N` [Form CS3 of ozanimod hydrochloride, ozanimod hydrochloride]: the “Hygroscopicity class according to the definition of hygroscopicity” value in data set [1] (Chinese Pharmacopoeia 2015 definition, 80% RH) is “hygroscopic”. In addition, the “Weight Gain under 80% RH” value came to 2.50% in data set [1] (hydrochloride) and 2.50% in data set [1] (listed as Form CS3, hydrochloride). Also, the solubility at 1 h in data set [2] (fed state simulated intestinal fluid (FeSSIF), FeSSIF pH=5.0, 1 h) is 2100 µg/mL; in data set [2] (simulated gastric fluid (SGF), simulated gastric fluid, SGF pH=1.8, 1 h) it was 200 µg/mL; in data set [2] (water, H2O, 1 h), 1100 µg/mL. In addition, the solubility at 4 h in data set [2] (fed state simulated intestinal fluid (FeSSIF), FeSSIF pH=5.0, 4 h) is 2100 µg/mL; in data set [2] (simulated gastric fluid (SGF), simulated gastric fluid, SGF pH=1.8, 4 h), 200 µg/mL; in data set [2] (water, H2O, 4 h) it was 1400 µg/mL. The solubility at 24 h in data set [2] (fed state simulated intestinal fluid (FeSSIF), FeSSIF pH=5.0, 24 h) is 1800 µg/mL; in data set [2] (simulated gastric fluid (SGF), simulated gastric fluid, SGF pH=1.8, 24 h) it was 200 µg/mL; in data set [2] (water, H2O, 24 h) it was 1300 µg/mL. In addition, the “MV (average particle size calculated by volume)” value in data set [3] (dispersion medium Isopar G, average of 3 runs) is on record as 131.8 μm. In data set [3] (unit not given), the average particle size turned out to be 131.8. In data set [3] (volume distribution, Isopar G), this molecule returned a D10 of 19.94 μm. Besides, the D50 in data set [3] (volume distribution, Isopar G) stood at 100.5 μm. Besides, the D90 in data set [3] (volume distribution, Isopar G) is recorded as 287.0 μm. Besides, the “Crystalline form change by XRPD after storage” value in data set [4] (25° C./60% RH) and in data set [4] (40° C./75% RH) was “No form change” each time.
